Data taken from ChEMBL document CHEMBL1201862, “PubChem BioAssay data set” (2004).
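Exposure lasted 48 hours, with cells grown in 96-well plates and compounds tested at five concentrations. Abbreviation: GI50, concentration required for 50% inhibition of growth.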 The source made the active and inactive calls. Rule as the data show it: active = GI50 up to about 1.1 µM and inactive = higher.

How the values were obtained:
Assay in all cases: NCI anticancer screen, dose series, 48 h
HCT-15 = test system: HCT-15
SK-MEL-2 = test system: SK-MEL-2
TK-10 = test system: TK-10
SW-620 = test system: SW-620
SF-295 = test system: SF-295
MDA-MB-231 = test system: MDA-MB-231
OVCAR-5 = test system: OVCAR-5
Malme-3M = test system: Malme-3M
CCRF-CEM = test system: CCRF-CEM
NCI-H522 = test system: NCI-H522
SNB-75 = test system: SNB-75
SR = test system: SR
SF-539 = test system: SF-539
DU-145 = test system: DU-145
A498 = test system: A498
U-251 = test system: U-251
UACC-62 = test system: UACC-62
MCF7 = test system: MCF7
IGROV-1 = test system: IGROV-1
HCC 2998 = test system: HCC 2998

| SMILES | GI50 (HCT-15) | GI50 (SK-MEL-2) | GI50 (TK-10) | GI50 (SW-620) | GI50 (SF-295) | GI50 (MDA-MB-231) | GI50 (OVCAR-5) | GI50 (Malme-3M) | GI50 (CCRF-CEM) | GI50 (NCI-H522) | GI50 (SNB-75) | GI50 (SR) | GI50 (SF-539) | GI50 (DU-145) | GI50 (A498) | GI50 (U-251) | GI50 (UACC-62) | GI50 (MCF7) | GI50 (IGROV-1) | GI50 (HCC 2998) |
| --- | --- | --- | --- | --- | --- | --- | --- | --- | --- | --- | --- | --- | --- | --- | --- | --- | --- | --- | --- | --- |
| NCCSC(c1ccccc1)c1ccccc1 | 33.2 µM | 18.4 µM (inactive) | 16.9 µM (inactive) | 18.5 µM (inactive) | 18.2 µM (inactive) | 18.6 µM (inactive) | 17.2 µM (inactive) | 19.5 µM (inactive) | 32.6 µM (inactive) | 19.1 µM (inactive) | 24.5 µM (inactive) | 17.6 µM (inactive) | 20.7 µM (inactive) | 29.2 µM (inactive) | 22.4 µM (inactive) | 18.2 µM (inactive) | 17 µM (inactive) | 19.3 µM (inactive) | 13.1 µM (inactive) | – |
| NC(CCC(=O)O)C(=O)N1CCN(c2nc(N3CCCC3)c3nc(Cl)c(NCc4ccccc4)nc3n2)CC1 (centres undefined) | 14 µM | 15.6 µM (inactive) | 17.1 µM (inactive) | 18.2 µM (inactive) | 11.6 µM (inactive) | 14.4 µM (inactive) | 18.7 µM (inactive) | 17.3 µM (inactive) | 7.19 µM (inactive) | 14.8 µM (inactive) | 12 µM (inactive) | 3.68 µM (inactive) | 13.2 µM (inactive) | 8.43 µM (inactive) | – | 13.8 µM (inactive) | 11.2 µM (inactive) | 7.24 µM (inactive) | 21.2 µM (inactive) | 11.4 µM (inactive) |
| CC(=O)Nc1ncc2c(n1)-c1ccccc1OC2 | > 100 µM | > 100 µM (inactive) | > 100 µM (inactive) | > 100 µM (inactive) | > 100 µM (inactive) | > 100 µM (inactive) | > 100 µM (inactive) | – | > 100 µM (inactive) | > 100 µM (inactive) | 65.2 µM (inactive) | > 100 µM (inactive) | > 100 µM (inactive) | > 100 µM (inactive) | > 100 µM (inactive) | > 100 µM (inactive) | > 100 µM (inactive) | > 100 µM (inactive) | > 100 µM (inactive) | – |
| O=C(O)CC1OCC=C2C[N+]3([O-])CCC45c6ccccc6NC4C1C2CC53 (centres undefined) | > 100 µM | 17.7 µM (inactive) | > 100 µM (inactive) | > 100 µM (inactive) | > 100 µM (inactive) | > 100 µM (inactive) | > 100 µM (inactive) | > 100 µM (inactive) | – | > 100 µM (inactive) | – | > 100 µM (inactive) | > 100 µM (inactive) | > 100 µM (inactive) | > 100 µM (inactive) | > 100 µM (inactive) | > 100 µM (inactive) | > 100 µM (inactive) | > 100 µM (inactive) | – |
| OC1(C2(c3ccc(Cl)cc3)CCCC2)c2ccccc2C2=NCCN21 (centres undefined) | 15.6 µM | – | 15.1 µM (inactive) | 22.8 µM (inactive) | 16.5 µM (inactive) | 14.8 µM (inactive) | 15.8 µM (inactive) | 17.7 µM (inactive) | 14.4 µM (inactive) | 16.2 µM (inactive) | 3.83 µM (inactive) | 18.1 µM (inactive) | – | 0.0716 µM (active) | 15.7 µM (inactive) | 14.2 µM (inactive) | 16.1 µM (inactive) | 17.5 µM (inactive) | 12.9 µM (inactive) | 2.4 µM (inactive) |
| Cc1c(/C=N/NC(=S)Nc2ccccc2Cl)c(=O)n(-c2ccccc2)n1C | 8.53 µM | > 100 µM (inactive) | 23.4 µM (inactive) | 39.9 µM (inactive) | 28.1 µM (inactive) | 14.9 µM (inactive) | > 100 µM (inactive) | 32.7 µM (inactive) | 11 µM (inactive) | 22.5 µM (inactive) | 25.9 µM (inactive) | 43.8 µM (inactive) | 30.1 µM (inactive) | 60.4 µM (inactive) | 30.4 µM (inactive) | 30.3 µM (inactive) | 31 µM (inactive) | 46.5 µM (inactive) | 40.3 µM (inactive) | – |
| O=C(CC(C(=O)c1ccc(F)cc1)c1ccsc1)c1cccs1 (centres undefined) | 86.9 µM | > 100 µM (inactive) | > 100 µM (inactive) | > 100 µM (inactive) | 67.6 µM (inactive) | > 100 µM (inactive) | > 100 µM (inactive) | 36 µM (inactive) | 68.9 µM (inactive) | – | 94 µM (inactive) | 39.4 µM (inactive) | > 100 µM (inactive) | > 100 µM (inactive) | > 100 µM (inactive) | > 100 µM (inactive) | > 100 µM (inactive) | 82.2 µM (inactive) | > 100 µM (inactive) | > 100 µM (inactive) |
